Measured values from patent US9416111B2, “Substituted diazine and triazine spleen tyrosine kinease (Syk) inhibitors” (Merck Sharp & Dohme Corp., priority 2012, dated 2016).

target: T1, recombinant human GST-SYK (Homo sapiens, UniProt P43405); assay: Homogeneous Time-Resolved Fluorescence (HTRF) assay for the recombinant human Syk enzyme; assay type: biochemical; settings: GST-hSYK 5 pM, ATP 25 μM, IC50 rated in classes, read-out: rhSYK Activity
T1 construct: purchased Carna Biosciences 08-176
Summary of the method: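 GST-hSYK (5 pM) was preincubated 10 min with inhibitor in 15 mM Tris-HCl pH 7.5, 0.01% tween 20, 2 mM DTT; reaction started with 250 nM biotinylated peptide, 5 mM Mg and 25 μM ATP, run 45 min at room temperature. Phosphopeptide detected by HTRF (Eu-anti-phosphotyrosine/SA-APC) after EDTA quench.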

First: Cc1cc(Nc2nccc(C(F)(F)F)n2)cc(-c2cnc(N3CCOC(CCO)C3)nc2)c1 (stereo not drawn) [Example 2.23, 2-{4-[5-(3-methyl-5-{[4-(trifluoromethyl)pyrimidin-2-yl]amino}phenyl)pyrimidin-2-yl]morpholin-2-yl}ethanol]
Second: Cc1cc(Nc2nccc(C(F)(F)F)n2)cc(-c2cnc(N3CCC(O)C3)nc2)c1 (stereo not drawn) [Example 2.10, l-[5-(3-methyl-5-{[4-(trifluoromethyl)pyrimidin-2-yl]amino}phenyl)pyrimidin-2-yl]pyrrolidin-3-ol]
The IC50 of the first is higher: 100 to 1000 nM for the first, under 100 nM for the second. The second is the more potent here.

Cc1cc(Nc2nccc(C(F)(F)F)n2)cc(-c2cncnc2)c1 [Example 1.1, N-(3-methyl-5-pyrimidin-5-ylphenyl)-4-(trifluoromethyl)pyrimidin-2-amine] and Cc1cc(Nc2nccc(C(F)(F)F)n2)cc(-c2cnc(N(C)CC(=O)O)nc2)c1 [Example 2.32, N-methyl-N-[5-(3-methyl-5-{[4-(trifluoromethyl)pyrimidin-2-yl]amino}phenyl)pyrimidin-2-yl]glycine] cannot be ordered by IC50: under 100 nM for the first, under 100 nM for the second.

First: CCOC(=O)CCc1cc(-c2cc(C)cc(Nc3nccc(C)n3)c2)ncn1 [Example 3.51, ethyl 3-(6-{3-methyl-5-[(4-methylpyrimidin-2-yl)amino]phenyl}pyrimidin-4-yl)propanoate]
Second: CCOC(=O)CCc1cc(-c2cc(C)cc(Nc3nccc(C(F)(F)F)n3)c2)ncn1 [Example 3.49, ethyl 3-[6-(3-methyl-5-{[4-(trifluoromethyl)pyrimidin-2-yl]amino}phenyl)pyrimidin-4-yl]propanoate]
The IC50 of the first is higher: 1000 to 10000 nM for the first, 100 to 1000 nM for the second. The second is the more potent here.

Cc1cc(Nc2nccc(C(F)(F)F)n2)cc(-c2cnc(NCC(O)CO)nc2)c1 (stereo not drawn) [Example 2.13, 3-{[5-(3-methyl-5-{[4-(trifluoromethyl)pyrimidin-2-yl]amino}phenyl)pyrimidin-2-yl]amino}propane-1,2-diol] and Cc1cc(Nc2nccc(C(F)(F)F)n2)cc(-c2cnc(NCC(O)C(F)F)nc2)c1 (stereo not drawn) [Example 2.15, 1,1-difluoro-3-{[5-(3-methyl-5-{[4-(trifluoromethyl)pyrimidin-2-yl]amino}phenyl)pyrimidin-2-yl]amino}propan-2-ol] cannot be ordered by IC50: under 100 nM for the first, under 100 nM for the second.

Cc1cc(Nc2nccc(C(F)(F)F)n2)cc(-c2cnc(NCCC(N)=O)nc2)c1 [Example 2.39, N~3~-[5-(3-methyl-5-{[4-(trifluoromethyl)pyrimidin-2-yl]amino}phenyl)pyrimidin-2-yl]-beta-alaninamide] and CNC(=O)CCNc1ncc(-c2cc(C)cc(Nc3nccc(C(F)(F)F)n3)c2)cn1 [Example 2.69, N-methyl-N~3~-[5-(3-methyl-5-{[4-(trifluoromethyl)pyrimidin-2-yl]amino}phenyl)pyrimidin-2-yl]-beta-alaninamide] cannot be ordered by IC50: under 100 nM for the first, under 100 nM for the second.

CCOC(=O)CCc1ccc(-c2cc(C)cc(Nc3nccc(C)n3)c2)nn1 [Example 3.40, ethyl 3-(6-{3-methyl-5-[(4-methylpyrimidin-2-yl)amino]phenyl}pyridazin-3-yl)propanoate] and Cc1cc(Nc2nccc(C)n2)cc(-c2cncc(CCC(=O)O)n2)c1 [Example 3.20, 3-(6-{3-methyl-5-[(4-methylpyrimidin-2-yl)amino]phenyl}pyrazin-2-yl)propanoic acid] fall in the same range of IC50: 100 to 1000 nM for the first, 100 to 1000 nM for the second.

Cc1cc(Nc2nccc(C(F)(F)F)n2)cc(-c2cnc(N3CCNC(=O)C3)nc2)c1 [Example 2.46, 4-[5-(3-methyl-5-{[4-(trifluoromethyl)pyrimidin-2-yl]amino}phenyl)pyrimidin-2-yl]piperazin-2-one] and Cc1cc(Nc2nccc(C(F)(F)F)n2)cc(-c2cnc(N3CCCC(O)C3)nc2)c1 (stereo not drawn) [Example 2.75, 1-[5-(3-methyl-5-{[4-(trifluoromethyl)pyrimidin-2-yl]amino}phenyl)pyrimidin-2-yl]piperidin-3-ol] cannot be ordered by IC50: under 100 nM for the first, under 100 nM for the second.

Cc1cc(Nc2nccc(C(F)F)n2)cc(-c2cnc([C@@H](C)[C@H]3CC[C@H](C(=O)O)CC3)nc2)c1 (single isomer, unassigned) [Example 6.2, trans-4-{1-[5-(3-{[4-(difluoromethyl)pyrimidin-2-yl]amino}-5-methylphenyl)pyrimidin-2-yl]ethyl}cyclohexanecarboxylic acid] and Cc1cc(Nc2nccc(C(F)F)n2)cc(-c2cnc([C@H](C)[C@H]3CC[C@H](C(=O)O)[C@H](C)C3)nc2)c1 (single isomer, unassigned) [Example 7.1] cannot be ordered by IC50: under 100 nM for the first, under 100 nM for the second.

Compared with Cc1cc(Nc2nccc(C(F)(F)F)n2)cc(-c2ccc(N3CCOCC3)nn2)c1 [Example 3.29, N-[3-methyl-5-(6-morpholin-4-ylpyridazin-3-yl)phenyl]-4-(trifluoromethyl)pyrimidin-2-amine], CC(=O)N1CCN(c2ncc(-c3cc(C)cc(Nc4nccc(C(F)(F)F)n4)c3)cn2)CC1 [Example 2.40, N-{3-[2-(4-acetylpiperazin-1-yl)pyrimidin-5-yl]-5-methylphenyl}-4-(trifluoromethyl)pyrimidin-2-amine] is lower in IC50: 100 to 1000 nM for the first, under 100 nM for the second. The second is the more potent here.

Cc1cc(Nc2nccc(C(F)(F)F)n2)cc(-c2cnc(NCCCC(=O)O)nc2)c1 [Example 2.11, 4-{[5-(3-methyl-5-{[4-(trifluoromethyl)pyrimidin-2-yl]amino}phenyl)pyrimidin-2-yl]amino}butanoic acid] and COCC(Nc1ncc(-c2cc(C)cc(Nc3nccc(C(F)(F)F)n3)c2)cn1)C(=O)O (racemic) [Example 2.38, O-methyl-N-[5-(3-methyl-5-{[4-(trifluoromethyl)pyrimidin-2-yl]amino}phenyl)pyrimidin-2-yl]serine] cannot be ordered by IC50: under 100 nM for the first, under 100 nM for the second.

Cc1cc(Nc2nccc(C(F)(F)F)n2)cc(-c2cnc(NCC3CCC(=O)N3)nc2)c1 (stereo not drawn) [Example 2.22, 5-({[5-(3-methyl-5-{[4-(trifluoromethyl)pyrimidin-2-yl]amino}phenyl)pyrimidin-2-yl]amino}methyl)pyrrolidin-2-one] and Cc1cc(Nc2nccc(C(F)(F)F)n2)cc(-c2cnc(NCCc3c[nH]cn3)nc2)c1 [Example 2.33, N-[3-(2-{[2-(1H-imidazol-4-yl)ethyl]amino}pyrimidin-5-yl)-5-methylphenyl]-4-(trifluoromethyl)pyrimidin-2-amine] cannot be ordered by IC50: under 100 nM for the first, under 100 nM for the second.

Cc1cc(Nc2nccc(C(F)(F)F)n2)cc(-c2cnc(OC3CCC(C(=O)O)CC3)nc2)c1 (stereo not drawn) [Example 3.58, 4-{[5-(3-methyl-5-{[4-(trifluoromethyl)pyrimidin-2-yl]amino}phenyl)pyrimidin-2-yl]oxy}cyclohexanecarboxylic acid] and Cc1cc(Nc2nccc(C(F)(F)F)n2)cc(-c2cnc(N(C)C(=O)CC#N)nc2)c1 [Example 2.80, 2-cyano-N-methyl-N-[5-(3-methyl-5-{[4-(trifluoromethyl)pyrimidin-2-yl]amino}phenyl)pyrimidin-2-yl]acetamide] cannot be ordered by IC50: under 100 nM for the first, under 100 nM for the second.

Work on Cc1cc(Nc2nccc(C(F)(F)F)n2)cc(-c2cnc(N(C)CC(O)CO)nc2)c1 (stereo not drawn) [Example 2.43, 3-{methyl[5-(3-methyl-5-{[4-(trifluoromethyl)pyrimidin-2-yl]amino}phenyl)pyrimidin-2-yl]amino}propane-1,2-diol] yielded an IC50 of under 100 nM.

same assay, conditions: GST-hSYK 5 pM, ATP 25 μM, values in text, read-out: IC50

Going from Cc1cc(Nc2nccc(C(F)(F)F)n2)cc(-c2cncnc2)c1 [Example 1.1, N-(3-methyl-5-pyrimidin-5-ylphenyl)-4-(trifluoromethyl)pyrimidin-2-amine] to Cc1cc(Nc2nccc(C(F)F)n2)cc(-c2cnc([C@@H](C)[C@H]3CC[C@H](C(=O)O)CC3)nc2)c1 (single isomer, unassigned) [Example 6.2, trans-4-{1-[5-(3-{[4-(difluoromethyl)pyrimidin-2-yl]amino}-5-methylphenyl)pyrimidin-2-yl]ethyl}cyclohexanecarboxylic acid], the IC50 falls from 66.2 nM to 0.3 nM (220-fold). The second is the more potent here.

test system: PGD2; assay: not given; settings: dosed intranasally, phase I/II study, allergic rhinitis; cited from earlier work

In the case of Oc1cccc(Nc2ncc(F)c(Nc3cccc(O)c3)n2)c1 [Example R112], the clinical safety is listed as “safe across a range of indicators”.

For Oc1cccc(Nc2ncc(F)c(Nc3cccc(O)c3)n2)c1 [Example R112], the “decrease in PGD2” value is given as “statistically significant decrease in PGD2”.

test system: not given; assay: not given; settings: phase II clinical trial, allergic rhinitis; cited from earlier work

For Oc1cccc(Nc2ncc(F)c(Nc3cccc(O)c3)n2)c1 [Example R112], the efficacy versus placebo is given as “lack of efficacy versus placebo”.
